Target: recombinant soluble dimeric mouse H-2D^b:Ig (DimerX) protein (Mus musculus, UniProt P01899)
Assay: biochemical
Format: binding

Chain of recombinant soluble dimeric mouse H-2D^b:Ig (DimerX) protein (P01899 25-298 limits assumed): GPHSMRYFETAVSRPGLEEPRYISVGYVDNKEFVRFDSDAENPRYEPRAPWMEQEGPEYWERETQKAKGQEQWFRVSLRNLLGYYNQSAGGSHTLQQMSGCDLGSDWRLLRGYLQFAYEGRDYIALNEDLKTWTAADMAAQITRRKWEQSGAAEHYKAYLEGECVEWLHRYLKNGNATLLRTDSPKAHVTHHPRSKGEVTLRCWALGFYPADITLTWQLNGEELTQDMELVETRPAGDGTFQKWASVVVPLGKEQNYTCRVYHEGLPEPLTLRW

For `CC[C@H](C)[C@H](NC(=O)CNC(=O)[C@@H](NC(=O)[C@H](Cc1ccccc1)NC(=O)[C@H](CCCCN)NC(=O)[C@H](CO)NC(=O)[C@H](CC(N)=O)NC(=O)[C@H](C)NC(=O)[C@H](CCCCN)NC(=O)[C@@H](NC(=O)[C@H](Cc1ccc(O)cc1)NC(=O)[C@@H](N)CCC(N)=O)[C@@H](C)CC)[C@@H](C)CC)C(=O)N[C@H](C(=O)N[C@@H](CCC(=O)O)C(=O)O)[C@@H](C)O` [TT830-843], the Kd was 344 ± 60 nM, the kon (pH 7.2, read-out: association rate constant ka) was 900000 M⁻¹ s⁻¹ and the koff (pH 7.2, read-out: dissociation rate constant kd) was 0.31 ± 0.02 s⁻¹.
